{"source": "paper PMC4127372", "about": "(Journal of pharmaceutical and biomedical analysis, 2014)", "settings": "pre-tested baboon plasma following intravenous infusion", "data": [{"smiles": "CCCCCCCCCCNCCN[C@@]1(C)C[C@H](O[C@H]2[C@H](Oc3c4cc5cc3Oc3ccc(cc3Cl)[C@@H](O)[C@@H](NC(=O)[C@@H](CC(C)C)NC)C(=O)N[C@@H](CC(N)=O)C(=O)N[C@H]5C(=O)N[C@H]3C(=O)N[C@H](C(=O)N[C@H](C(=O)O)c5cc(O)c(CNCP(=O)(O)O)c(O)c5-c5cc3ccc5O)[C@H](O)c3ccc(c(Cl)c3)O4)O[C@H](CO)[C@@H](O)[C@@H]2O)O[C@@H](C)[C@H]1O", "note": "[telavancin]", "values": [{"measurement": "lowest concentration of telavancin determined in pre-tested baboon plasma", "result": "approximately 200 ng/ml"}]}]}
